According to US20090239841A1, “Diaryl Ureas as CB1 Antagonists” (priority 2004, published 2009):

Target: T1, hCB1 (Homo sapiens, UniProt P21554)
T1 construct: made in house; host or cells: Sf9 insect cells (baculovirus), P2 membranes
Experiment: Agonist-induced GTP binding (GTPγ35S) assay at CB1, Example 8
Type: biochemical
Settings: IC50 at CB1, determined as described in Example 8; read-out: IC50
Description: As noted above, compounds provided herein are CB1 antagonists. Certain such compounds are non-competitive CB1 antagonists. In addition, or alternatively, certain compounds provided herein display CB1 specificity. CB1 antagonist activity may be confirmed using an agonist-induced GTP binding assay, such as the assay described in Example 8. Such assays employ a CB1-containing cell membrane preparation (e.g., a preparation of membranes of insect cells that recombinantly express CB1) to determine the effect of a test compound on CB1 agonist-induced GTP binding to CB1. Briefly, a first cell membrane preparation comprising CB1 is contacted with: (i) labeled GTP; (ii) a CB1 agonist; and (iii) a test compound to yield a test membrane preparation. Simultaneously, or in either order, a second cell membrane preparation comprising CB1 is contacted with: (i) labeled GTP; and (ii) a CB1 agonist to yield a control membrane preparation. The labeled GTP is preferably GTPγ^35S; a representative CB1 agonist is CP55,940. Such contact is performed under conditions that are suitable for GTP binding to CB1, such as the conditions described in Example 8. The concentrations of labeled GTP and CB1 agonist used are generally concentrations that are sufficient to result in a detectable increase in the amount of labeled GTP bound to the membrane preparation in the presence of CB1 agonist. Such concentrations may be determined by routine experimentation; representative suitable concentrations are provided in Example 8. Generally, a range of test compound concentrations is used (e.g., ranging from 10^−10M to 10^−5M).
After sufficient contact (e.g., incubation) to allow GTP binding to the membrane preparations, a signal that corresponds to (represents) the amount of bound, labeled GTP is detected (typically, unbound labeled GTP is first removed via a washing step). In other words, simultaneously or in either order: (i) a test signal that represents an amount of bound, labeled GTP in the test membrane preparation is detected; and (ii) a control signal that represents an amount of bound, labeled GTP in the control membrane preparation is detected. The nature of the signal detected is determined by the type of label used. For example, if the GTP is radioactively labeled, the signal detected is radioactive decay (e.g., via liquid scintillation spectrometry). The CB1 antagonist activity of the test compound is then determined by comparing the test signal with the control signal.
This assay can also be used to detect partial agonism mediated by antagonist compounds. A compound being analyzed in this assay is referred to herein as a “test compound.” Agonist-stimulated GTP binding activity is measured as follows: Four independent baculoviral stocks (one directing the expression of hCB1 and three directing the expression of each of the three subunits of a heterotrimeric G-protein) are used to infect a culture of Sf9 cells as described in Example 5.
Agonist-stimulated GTP binding on purified membranes (as described in Example 6) is initially assessed using the cannabinoid agonist CP55,940 to ascertain that the receptor/G-protein-alpha-beta-gamma combination(s) yield a functional response as measured by GTP binding.
P2 membranes are resuspended by Dounce homogenization (tight pestle) in GTP binding assay buffer (50 mM Tris pH 7.4, 120 mM NaCl, 5 mM MgCl2, 2 mM EGTA, 0.1% BSA, 0.1 mM bacitracin, 10 KIU/mL aprotinin, 5 μM GDP) and added to reaction tubes at a concentration of 10 μg protein/reaction tube. After adding increasing doses of the agonist CP55,940 at concentrations ranging from 10^−12 M to 10^−6 M, reactions are initiated by the addition of […] GTPγ^35S. In competition experiments, non-radiolabeled test compounds are added to separate assays at concentrations ranging from 10^−10 M to 10^−5 M along with 1 nM CP55,940 to yield a final volume of 0.25 mL. […]

T1 sequence (P21554 whole entry): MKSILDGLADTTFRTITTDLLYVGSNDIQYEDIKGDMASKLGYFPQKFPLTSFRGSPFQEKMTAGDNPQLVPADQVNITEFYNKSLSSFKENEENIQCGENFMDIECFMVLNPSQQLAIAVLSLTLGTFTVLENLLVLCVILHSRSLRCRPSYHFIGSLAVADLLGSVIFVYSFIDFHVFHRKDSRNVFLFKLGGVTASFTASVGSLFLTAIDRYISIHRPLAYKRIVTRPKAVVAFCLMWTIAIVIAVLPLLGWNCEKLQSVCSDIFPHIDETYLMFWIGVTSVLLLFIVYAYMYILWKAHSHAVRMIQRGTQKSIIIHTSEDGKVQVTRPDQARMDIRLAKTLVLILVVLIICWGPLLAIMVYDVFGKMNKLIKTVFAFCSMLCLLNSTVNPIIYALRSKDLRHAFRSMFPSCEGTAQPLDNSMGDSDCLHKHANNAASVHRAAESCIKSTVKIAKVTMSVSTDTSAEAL

IC50 | Structure (SMILES)
< 2 µM | N#CCc1ccc(NC(=O)Nc2ccc(F)c(F)c2)cc1 [Compound 728, 1-[4-(cyanomethyl)phenyl]-3-(3,4-difluorophenyl)urea]
< 2 µM | CCc1ccc(NC(=O)Nc2ncccc2C)cc1 [Compound 639, 1-(4-ethylphenyl)-3-(3-methylpyridin-2-yl)urea]
< 2 µM | CCCOc1ccc(NC(=O)Nc2cccc(OC)c2)cc1 [Compound 546, 1-(3-methoxyphenyl)-3-(4-propoxyphenyl)urea]
< 2 µM | CCOC(=O)c1cccc(NC(=O)Nc2cccc(OCCO)c2)c1 [Compound 756, ethyl 3-[({[3-(2-hydroxyethoxy)phenyl]amino}carbonyl)amino] benzoate]
< 2 µM | CCCOc1ccc(NC(=O)Nc2cccc(C)c2)cc1 [Compound 304, 1-(3-methylphenyl)-3-(4-propoxyphenyl)urea]
< 2 µM | CCCOc1ccc(NC(=O)Nc2ccc(Cl)cc2)cc1 [Compound 398, 1-(4-chlorophenyl)-3-(4-propoxyphenyl)urea]
< 2 µM | CCOc1ccc(NC(=O)Nc2ccc(F)cc2)cc1 [Compound 358, 1-(4-ethoxyphenyl)-3-(4-fluorophenyl)urea]
< 2 µM | CC(C)Oc1ccc(NC(=O)Nc2cccc(Cl)c2)cc1 [Compound 404, 1-(3-chlorophenyl)-3-(4-isopropoxyphenyl)urea]
< 2 µM | COc1cccc(NC(=O)Nc2ccc(C)c(F)c2)c1 [Compound 614, 1-(3-fluoro-4-methylphenyl)-3-(3-methoxyphenyl)urea]
< 2 µM | CCOC(=O)c1ccc(NC(=O)Nc2ccc(F)cc2)cc1 [Compound 476, ethyl 4-({[(4-fluorophenyl)amino]carbonyl}amino)benzoate]
< 2 µM | Cc1ccc(NC(=O)Nc2ccc(OC(F)(F)F)cc2)cc1F [Compound 607, 1-(3-fluoro-4-methylphenyl)-3-[4-(trifluoromethoxy)phenyl]urea]
< 2 µM | CCOc1ccc(NC(=O)Nc2ccc(OCC#N)cc2)cc1 [Compound 590, 1-[4-(cyanomethoxy)phenyl]-3-(4-ethoxyphenyl)urea]
< 2 µM | CCC(=O)c1ccc(NC(=O)Nc2ccc(C)cc2)cc1 [Compound 469, 1-(4-methylphenyl)-3-(4-propionylphenyl)urea]
< 2 µM | CN1CCN(S(=O)(=O)c2ccc(NC(=O)Nc3cccc(OC(F)F)c3)cc2)CC1 [Compound 790, N-[3-(difluoromethoxy)phenyl]-N′-{4-[(4-methyl-1-piperazinyl)sulfonyl]phenyl}urea]
< 2 µM | CCCc1ccc(NC(=O)Nc2ccc(C(=O)OC)cc2)cc1 [Compound 651, methyl 4-({[(4-propylphenyl)amino]carbonyl}amino)benzoate]
< 2 µM | CCc1ccc(NC(=O)Nc2cccc(Cl)c2)cc1 [Compound 330, 1-(3-chlorophenyl)-3-(4-ethylphenyl)urea]
< 2 µM | CCOC(=O)c1ccc(NC(=O)Nc2cccc(OCCO)c2)cc1 [Compound 757, ethyl 4-[({[3-(2-hydroxyethoxy)phenyl]amino}carbonyl)amino] benzoate]
< 2 µM | CCc1ccc(NC(=O)Nc2ccc([N+](=O)[O-])cc2)cc1 [Compound 487, 1-(4-ethylphenyl)-3-(4-nitrophenyl)urea]
< 2 µM | CC(=O)c1ccc(NC(=O)Nc2ccc(C(C)C)cc2)cc1 [Compound 348, 1-(4-acetylphenyl)-3-(4-isopropylphenyl)urea]
< 2 µM | CC(C)c1ccc(NC(=O)Nc2ccc([N+](=O)[O-])cc2)cc1 [Compound 528, 1-(4-isopropylphenyl)-3-(4-nitrophenyl)urea]
< 2 µM | O=C(Nc1ccccc1)Nc1ccc(N2CCCCC2)cc1 [Compound 321, 1-phenyl-3-(4-piperidin-1-ylphenyl)urea]
< 2 µM | CCOc1ccc(NC(=O)Nc2ccc(OC(F)(F)F)cc2)cc1 [Compound 532, 1-(4-ethoxyphenyl)-3-[4-(trifluoromethoxy)phenyl]urea]
< 2 µM | CCc1cccc(NC(=O)Nc2ccc(OC(C)C)cc2)c1 [Compound 402, 1-(3-ethylphenyl)-3-(4-isopropoxyphenyl)urea]
< 2 µM | CCc1ccc(NC(=O)Nc2cccc(C)c2)cc1 [Compound 289, N-(4-ethylphenyl)-N′-(3-methylphenyl)urea]
< 2 µM | COC(=O)c1ccc(NC(=O)Nc2ccc(CCO)cc2)cc1 [Compound 752, methyl 4-[({[4-(2-hydroxyethyl)phenyl]amino}carbonyl)amino] benzoate]

Same assay, conditions: Table I; IC50 at CB1, GTP binding with 1 nM CP55,940; read-out: IC50

IC50 | Structure (SMILES)
< 2 µM | CCCCc1ccc(NC(=O)Nc2ccc(C)cc2)cc1 [Compound 37, N-(4-butylphenyl)-N′-(4-methylphenyl)urea]

Same assay, conditions: Table II; IC50 at CB1, GTP binding with 1 nM CP55,940; read-out: IC50

IC50 | Structure (SMILES)
< 2 µM | Nc1ncc(Br)cc1NC(=O)Nc1ccc(OC(F)F)cc1 [Compound 136, N-(2-amino-5-bromopyridin-3-yl)-N′-[4-(difluoromethoxy)phenyl]urea]
< 2 µM | CCc1ccc(NC(=O)Nc2ccc(Cl)nc2)cc1 [Compound 153, N-(6-chloropyridin-3-yl)-N′-(4-ethylphenyl)urea]
< 2 µM | O=C(Nc1ccc(OC(F)F)cc1)Nc1cccc(-c2cncnc2)c1 [Compound 64, N-[4-(difluoromethoxy)phenyl]-N′-(3-pyrimidin-5-ylphenyl)urea]
< 2 µM | CCOc1ccc(NC(=O)Nc2cccc(F)c2)cc1 [Compound 205, N-(4-ethoxyphenyl)-N′-(3-fluorophenyl)urea]
< 2 µM | CCOc1cccc(NC(=O)Nc2ccc(F)cc2)c1 [Compound 204, N-(3-ethoxyphenyl)-N′-(4-fluorophenyl)urea]
< 2 µM | Cc1cccc(NC(=O)Nc2cccc(-c3ccnc(C)n3)c2)c1 [Compound 163, N-(3-methylphenyl)-N′-[3-(2-methylpyrimidin-4-yl)phenyl]urea]
< 2 µM | CC(C)Oc1ccc(NC(=O)Nc2ccc(OC(F)F)cc2)cc1 [Compound 97, N-[4-(difluoromethoxy)phenyl]-N′-(4-isopropoxyphenyl)urea]
< 2 µM | CCCOc1ccc(NC(=O)Nc2cccc(C)c2)cc1 [Compound 159, N-(3-methylphenyl)-N′-(4-propoxyphenyl)urea]
< 2 µM | CCc1ccccc1NC(=O)Nc1cccc(OC(F)F)c1 [Compound 227, N-[3-(difluoromethoxy)phenyl]-N′-(2-ethylphenyl)urea]
< 2 µM | O=C(Nc1cccc(OC(F)F)c1)Nc1cccc(OC(F)F)c1 [Compound 112, N,N′-bis[3-(difluoromethoxy)phenyl]urea]
< 2 µM | CC(C)Oc1cccc(NC(=O)Nc2ccc(F)cc2)c1 [Compound 212, N-(4-fluorophenyl)-N′-(3-isopropoxyphenyl)urea]
< 2 µM | Cc1ccc(NC(=O)Nc2cccc(-c3ccnc(C)n3)c2)cc1 [Compound 164, N-(4-methylphenyl)-N′-[3-(2-methylpyrimidin-4-yl)phenyl]urea]
< 2 µM | O=C(Nc1ccc(OC(F)F)cc1)Nc1cccc(-c2cccnc2)c1 [Compound 63, N-[4-(difluoromethoxy)phenyl]-N′-(3-pyridin-3-ylphenyl)urea]
< 2 µM | O=C(Nc1ccc(Cl)cc1)Nc1cccc(OC(F)F)c1 [Compound 256, N-(4-chlorophenyl)-N′-[3-(difluoromethoxy)phenyl]urea]
< 2 µM | O=C(Nc1ccc(OC(F)(F)F)cc1)Nc1cccc(OCCO)c1 [Compound 101, N-[3-(2-hydroxyethoxy)phenyl]-N′-[4-(trifluoromethoxy)phenyl]urea]
